In the assay the target is T1, wild-type LRRK2 (Homo sapiens, UniProt Q5S007).
T1 construct: DNA tag for qPCR detection (not a peptide; the protein part that carries it is not described); made in house; host or cells: HEK 293 cells (the same paragraph also describes T7 phage grown in E. coli BL21)
Kind of assay: Inhibitory activity against LRRK2: competition binding to ligand-affinity beads, DNA-tagged kinase quantitated by qPCR. Conditions: % of ctrl; for remaining binding at 0.01 µM: 10 nM compound, read-out: LRRK2(WT) Remaining kinase activity(%) at 10 nM; for remaining binding at 0.05 µM: 50 nM compound, read-out: LRRK2(WT) Remaining kinase activity(%) at 50 nM. How it is done:
Representative compounds synthesized in Example 1 were assayed for inhibitory activity against wild-type LRRK2 and mutant LRRK2 (G2019S), and the results are summarized in Tables 2 and 3. In brief, a T7 phase strain carrying the wild-type kinase consisting of amino acid residues from H970 to E2527 of human-derived LRRK2 (Accession no. NP_940980.3) or a T7 phase strain carrying the G2019S mutation kinase was infected into E. coli strain BL21 which was then grown until log phase. After infection with T7 phases (multiplicity of infection=0.4), the cells were cultured at 32° C. for 90-150 minutes while shaking. Then, E. coli lysates were centrifuged (6,000×g) and the supernatant was filtered through a 0.2-μm filter. The kinases were produced in HEK 293 cells. In this regard, DNA was tagged to obtain DNA-tagged kinases for qPCR detection. For use in analyzing the kinases, affinity resins were prepared by treating streptavidin-coated magnetic beads with biotinylated small molecule ligands at room temperature for 30 minutes. Then, the liganded beads were blocked with an excess of biotin and washed with a blocking buffer (SeaBlock (Pierce), 1% BSA, 0.05% Tween 20, 1 mM DTT) to remove unbound ligands and thus to reduce the binding of non-specific phages. […] After one hour of incubation, the affinity beads were washed with a wash buffer (1×PBS, 0.05% Tween 20), resuspended in an elution buffer (1×PBS, 0.05% Tween 20, 0.5 μM non-biotinylated affinity ligand), and incubated at room temperature for 30 minutes while shaking. Afterwards, concentrations of wild-type LRRK2 and mutant LRRK2 (G2019S) in the eluted samples were quantitated by qPCR. Activity values are expressed as percentages relative to the control (% of ctrl). The compounds used in the activity assay were prepared into 40× stocks in 100% DMSO. The stocks were directly diluted during analysis procedures.
Table 2 includes inhibitory activities of the representative compounds of the present disclosure at 100 nM against wild-type LRRK2 and mutant LRRK2 (G2019S) while Table 3 includes inhibitory activities of the representative compounds at 10 nM and 50 nM against wild-type LRRK2. (+++ less than 10%; ++ less than 30%; + less than 50%; −50% or higher)

The source of these data is patent publication US20240254103A9, “NOVEL PYRIMIDINE DERIVATIVE, AND COMPOSITION FOR PREVENTING OR TREATING NEURODEGENERATIVE DISEASES AND CANCER, COMPRISING SAME” (WHAN IN PHARMACEUTICAL CO., LTD., priority 2020, published 2024).

Structures are written as SMILES.

T1 sequence (Q5S007 970-2527): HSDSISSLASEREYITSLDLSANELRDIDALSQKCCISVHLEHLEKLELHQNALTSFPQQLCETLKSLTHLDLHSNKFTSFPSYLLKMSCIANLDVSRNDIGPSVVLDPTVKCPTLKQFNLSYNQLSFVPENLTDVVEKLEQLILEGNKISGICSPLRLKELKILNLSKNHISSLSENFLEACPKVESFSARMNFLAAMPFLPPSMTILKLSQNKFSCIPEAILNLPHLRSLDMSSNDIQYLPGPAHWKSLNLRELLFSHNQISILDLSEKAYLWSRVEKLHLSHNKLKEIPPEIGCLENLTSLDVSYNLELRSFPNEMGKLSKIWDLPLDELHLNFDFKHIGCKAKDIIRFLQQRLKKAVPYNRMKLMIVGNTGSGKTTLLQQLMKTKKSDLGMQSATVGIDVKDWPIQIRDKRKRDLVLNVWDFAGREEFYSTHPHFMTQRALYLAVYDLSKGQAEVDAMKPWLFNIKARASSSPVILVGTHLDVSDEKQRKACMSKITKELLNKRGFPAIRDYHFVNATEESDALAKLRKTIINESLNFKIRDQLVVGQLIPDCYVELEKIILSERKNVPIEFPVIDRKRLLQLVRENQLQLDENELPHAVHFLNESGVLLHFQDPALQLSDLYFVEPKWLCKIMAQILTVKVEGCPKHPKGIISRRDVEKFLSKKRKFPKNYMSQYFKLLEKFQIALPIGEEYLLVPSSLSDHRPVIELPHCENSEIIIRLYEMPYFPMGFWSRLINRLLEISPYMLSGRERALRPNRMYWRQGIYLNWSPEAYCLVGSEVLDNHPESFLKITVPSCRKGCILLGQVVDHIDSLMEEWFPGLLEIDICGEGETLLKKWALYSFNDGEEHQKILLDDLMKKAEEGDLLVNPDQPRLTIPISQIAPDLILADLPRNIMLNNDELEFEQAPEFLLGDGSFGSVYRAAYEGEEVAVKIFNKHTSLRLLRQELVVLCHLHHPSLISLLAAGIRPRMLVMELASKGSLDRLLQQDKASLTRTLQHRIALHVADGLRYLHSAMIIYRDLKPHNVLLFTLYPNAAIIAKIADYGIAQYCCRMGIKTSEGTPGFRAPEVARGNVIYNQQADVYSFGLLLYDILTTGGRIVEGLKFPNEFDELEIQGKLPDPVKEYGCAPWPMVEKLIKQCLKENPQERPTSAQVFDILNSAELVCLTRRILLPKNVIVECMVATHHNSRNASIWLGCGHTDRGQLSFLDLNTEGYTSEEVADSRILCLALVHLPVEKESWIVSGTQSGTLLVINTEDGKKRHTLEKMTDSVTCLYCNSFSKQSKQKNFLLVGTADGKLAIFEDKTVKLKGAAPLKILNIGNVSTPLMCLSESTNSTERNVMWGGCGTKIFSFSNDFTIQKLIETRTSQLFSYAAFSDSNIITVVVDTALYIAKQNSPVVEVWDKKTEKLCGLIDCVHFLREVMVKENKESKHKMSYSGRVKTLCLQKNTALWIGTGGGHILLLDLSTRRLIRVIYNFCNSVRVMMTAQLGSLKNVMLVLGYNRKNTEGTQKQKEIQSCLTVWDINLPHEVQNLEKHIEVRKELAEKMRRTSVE

As for `COc1cc(C(=O)NC2CCC(N(C)C)CC2)ccc1Nc1ncc(Cl)c(-c2cnn(C(C)C)c2)n1` (centres unmarked) [Compound 93, 4-((5-chloro-4-(1-isopropyl-1H-pyrazol-4-yl)pyrimidin-2-yl)amino)-N-(4-(dimethylamino)cyclohexyl)-3-methoxybenzamide], the remaining binding at 0.01 µM is under 50% and the remaining binding at 0.05 µM was under 10%.

For `COc1cc(C(=O)N2CCC(N(C)C)CC2)ccc1Nc1ncc(Cl)c(-c2cnn(C(C)C)c2)n1` [Compound 94, (4-((5-chloro-4-(1-isopropyl-1H-pyrazol-4-yl)pyrimidin-2-yl)amino)-3-methoxyphenyl)(4-(dimethylamino)piperidin-1-yl)methanone], the remaining binding at 0.01 µM is under 30% and the remaining binding at 0.05 µM was under 10%.

Regarding `COc1cc(C(=O)N2[C@@H]3CC[C@H]2COC3)ccc1Nc1ncc(Cl)c(-c2cnn(C(C)C)c2)n1` [Compound 95, ((1R,5S)-3-oxa-8-azabicyclo[3.2.1]octan-8-yl)(4-((5-chloro-4-(1-isopropyl-1H-pyrazol-4-yl)pyrimidin-2-yl)amino)-3-methoxyphenyl)methanone], the remaining binding at 0.01 µM is at least 50% and the remaining binding at 0.05 µM was under 30%.

With `COc1cc(C(=O)NC2CCN(C)CC2)ccc1Nc1ncc(Cl)c(-c2cnn(C(C)(C)C)c2)n1` [Compound 96, 4-((4-(1-(tert-butyl)-1H-pyrazol-4-yl)-5-chloropyrimidin-2-yl)amino)-3-methoxy-N -(1-methylpiperidin-4-yl)benzamide], the remaining binding at 0.01 µM is at least 50% and the remaining binding at 0.05 µM is under 30%.

Consider `COc1cc(C(=O)N2CC3CN(C)CC3C2)ccc1Nc1ncc(Cl)c(-c2cnn(C(C)C)c2)n1` (centres unmarked) [Compound 98, (4-((5-chloro-4-(1-isopropyl-1H-pyrazol-4-yl)pyrimidin-2-yl)amino)-3-methoxyphenyl)(5-methylhexahydropyrrolo[3,4-c]pyrrol-2(1H)-yl)methanone], for which the remaining binding at 0.01 µM is under 30% and the remaining binding at 0.05 µM was under 10%.

`COc1cc(C(=O)NC2CCN(C(C)C)CC2)ccc1Nc1ncc(Cl)c(-c2cnn(C(C)C)c2)n1` [Compound 99, 4-((5-chloro-4-(1-isopropyl-1H-pyrazol-4-yl)pyrimidin-2-yl)amino)-N-(1-isopropylpiperidin-4-yl)-3-methoxybenzamide]: the remaining binding at 0.01 µM is under 50% and the remaining binding at 0.05 µM is under 30%.

As for `COc1cc(C(=O)N(C)C)ccc1Nc1ncc(Cl)c(-c2cnn(C(C)C)c2)n1` [Compound 101, 4-((5-chloro-4-(1-isopropyl-1H-pyrazol-4-yl)pyrimidin-2-yl)amino)-3-methoxy-N,N-dimethylbenzamide], the remaining binding at 0.01 µM was at least 50% and the remaining binding at 0.05 µM is under 50%.

`COc1cc(C(=S)N2CCN(C)CC2)c(F)cc1Nc1ncc(Cl)c(-c2cnn(C(C)C)c2)n1` [Compound 102, (4-((5-chloro-4-(1-isopropyl-1H-pyrazol-4-yl)pyrimidin-2-yl)amino)-2-fluoro-5-methoxyphenyl)(4-methylpiperazin-1-yl) methanethione]: the remaining binding at 0.01 µM was under 50% and the remaining binding at 0.05 µM is under 10%.

Take `COc1cc(C(=S)N2CCN(C)CC2)ccc1Nc1ncc(Cl)c(-c2cnn(C(C)C)c2)n1` [Compound 103, (4-((5-chloro-4-(1-isopropyl-1H-pyrazol-4-yl)pyrimidin-2-yl)amino)-3-methoxyphenyl)(4-methylpiperazin-1-yl) methanethione]: the remaining binding at 0.01 µM was under 30% and the remaining binding at 0.05 µM is under 10%.

Turning to `COc1cc(C(=O)N2CCN(C)CC2)c(F)cc1Nc1ncc(Cl)c(-c2cnn(C(C)C)c2)n1` [Compound 104, (4-((5-chloro-4-(1-isopropyl-1H-pyrazol-4-yl)pyrimidin-2-yl)amino)-2-fluoro-5-methoxyphenyl)(4-methylpiperazin-1-yl)methanone], the remaining binding at 0.01 µM was at least 50% and the remaining binding at 0.05 µM is under 30%.

Turning to `CC(C)n1cc(-c2nc(Nc3ccc(C(=O)N4CCOCC4)cc3OC(F)F)ncc2Cl)cn1` [Compound 105, (4-((5-chloro-4-(1-isopropyl-1H-pyrazol-4-yl)pyrimidin-2-yl)amino)-3-(difluoromethoxy)phenyl)(morpholino)methanone], the remaining binding at 0.01 µM is under 50% and the remaining binding at 0.05 µM was under 30%.

With `COc1cc(C(=S)N2CCOCC2)c(F)cc1Nc1ncc(Cl)c(-c2cnn(C(C)C)c2)n1` [Compound 106, (4-((5-chloro-4-(1-isopropyl-1H-pyrazol-4-yl)pyrimidin-2-yl)amino)-2-fluoro-5-methoxyphenyl)(morpholino) methanethione], the remaining binding at 0.01 µM was at least 50% and the remaining binding at 0.05 µM was under 30%.

For the molecule `CC(C)n1cc(-c2nc(Nc3ccc(C(=O)N4CCN(C)CC4)cc3OC(F)F)ncc2Cl)cn1` [Compound 108, (4-((5-chloro-4-(1-isopropyl-1H-pyrazol-4-yl)pyrimidin-2-yl)amino)-3-(difluoromethoxy)phenyl)(4-methylpiperazin-1-yl)methanone], the remaining binding at 0.01 µM was at least 50% and the remaining binding at 0.05 µM is under 30%.

In the case of `Cc1cc(C(=O)N2CCN(C)CC2)ccc1Nc1ncc(Cl)c(-c2cnn(C(C)C)c2)n1` [Compound 109, (4-((5-chloro-4-(1-isopropyl-1H-pyrazol-4-yl)pyrimidin-2-yl)amino)-3-methylphenyl)(4-methylpiperazin-1-yl)methanone], the remaining binding at 0.01 µM is at least 50% and the remaining binding at 0.05 µM is under 30%.

In the case of `COc1cc(C(=O)N2CCC(N(C)C)CC2)c(F)cc1Nc1ncc(Cl)c(-c2cnn(C(C)C)c2)n1` [Compound 110, (4-((5-chloro-4-(1-isopropyl-1H-pyrazol-4-yl)pyrimidin-2-yl)amino)-2-fluoro-5-methoxyphenyl)(4-(dimethylamino)piperidin-1-yl)methanone], the remaining binding at 0.01 µM was under 50% and the remaining binding at 0.05 µM is under 10%.

As for `COc1cc(C(=O)Nc2ccccc2)ccc1Nc1ncc(Cl)c(-c2cnn(C(C)C)c2)n1` [Compound 112, 4-((5-chloro-4-(1-isopropyl-1H-pyrazol-4-yl)pyrimidin-2-yl)amino)-3-methoxy-N-phenylbenzamide], the remaining binding at 0.01 µM is under 50% and the remaining binding at 0.05 µM was under 30%.

`COc1cc(C(=O)NCc2ccc(C)cc2)ccc1Nc1ncc(Cl)c(-c2cnn(C(C)C)c2)n1` [Compound 126, 4-((5-chloro-4-(1-isopropyl-1H-pyrazol-4-yl)pyrimidin-2-yl)amino)-3-methoxy-N-(4-methylbenzyl)benzamide]: the remaining binding at 0.01 µM is at least 50% and the remaining binding at 0.05 µM is under 50%.

Consider `COc1cc(C(=O)Nc2ccc(N(C)C)cc2)ccc1Nc1ncc(Cl)c(-c2cnn(C(C)C)c2)n1` [Compound 127, 4-((5-chloro-4-(1-isopropyl-1H-pyrazol-4-yl)pyrimidin-2-yl)amino)-N-(4-(dimethylamino)phenyl)-3-methoxybenzamide], for which the remaining binding at 0.01 µM is under 50% and the remaining binding at 0.05 µM is under 30%.

As to `COc1cc(C(=O)NCc2ccc(C#N)cc2)ccc1Nc1ncc(Cl)c(-c2cnn(C(C)C)c2)n1` [Compound 128, 4-((5-chloro-4-(1-isopropyl-1H-pyrazol-4-yl)pyrimidin-2-yl)amino)-N-(4-cyanobenzyl)-3-methoxybenzamide], the remaining binding at 0.01 µM is at least 50% and the remaining binding at 0.05 µM is under 50%.

Regarding `COc1cc(C(=O)NC2Cc3ccccc3C2)ccc1Nc1ncc(Cl)c(-c2cnn(C(C)C)c2)n1` [Compound 129, 4-((5-chloro-4-(1-isopropyl-1H-pyrazol-4-yl)pyrimidin-2-yl)amino)-N-(2,3-dihydro-1H-inden-2-yl)-3-methoxybenzamide], the remaining binding at 0.01 µM was at least 50% and the remaining binding at 0.05 µM was under 50%.

As for `COc1cc(C(=O)NCC2CCOC2)ccc1Nc1ncc(Cl)c(-c2cnn(C(C)C)c2)n1` (centres unmarked) [Compound 130, 4-((5-chloro-4-(1-isopropyl-1H-pyrazol-4-yl)pyrimidin-2-yl)amino)-3-methoxy-N-((tetrahydrofuran-3-yl)methyl)benzamide], the remaining binding at 0.01 µM is at least 50% and the remaining binding at 0.05 µM was under 30%.

On to `COc1cc(C(=O)NCCO)ccc1Nc1ncc(Cl)c(-c2cnn(C(C)C)c2)n1` [Compound 138, 4-((5-chloro-4-(1-isopropyl-1H-pyrazol-4-yl)pyrimidin-2-yl)amino)-N-(2-hydroxyethyl)-3-methoxybenzamide], for which the remaining binding at 0.01 µM was at least 50% and the remaining binding at 0.05 µM is under 50%.
